The values below come from patent US20090105305A1, “Therapeutic Agents - 550” (AstraZeneca AB, priority 2006, published 2009).

The target in this assay is T1, human Fatty Acid Synthase (Homo sapiens, UniProt P49327).
T1 construct: made in house
Put plainly: Human FAS enzyme assay (decrease in NADPH fluorescence). The class given is biochemical. To be noted: for IC50s in the range of about 0.001 μM to about 30 μM: compounds excluded from the claims by proviso; for inhibition at 100 µM: % inhibition at a concentration of 100 micromolar. The text has this:
The compounds of the present invention are Fatty Acid Synthase inhibitors. […] Human and Rat FAS Enzyme Assay.
Fatty acid synthase is an enzyme complex that harbours seven enzymatic activities catalysing the reductive synthesis of long chain fatty acids from acetyl CoA and malonyl CoA to palmitate. When acetyl CoA and malonyl CoA are forming palmitate NADPH is consumed forming NADP. Since NADPH is fluorescent but not NADP the reaction can be measured by analysing the decrease in fluorescence.
Compounds were added to a black 384 well plate (Matrix) in a volume of 5 μl consisting of 20% DMSO and 80% Tris buffer pH 7.5, at a top concentration of 1 mM. NADPH, 30 μl of 166.6 μM, formulated in assay buffer (0.1M Tris ph7.5, 0.1 mM EDTA, 1 mM glutathione, 0.05% BSA), was then added to all of the wells of the plate. Fatty acid synthase Human or rat enzyme (0.4 μg, produced in house), dissolved in 20 mM Tris/HCl pH 7.5, 5 mM BOG, 1 mM TCEP, 10% glycerol, 1 mM EDTA, 150 mM NaCl, was then added to the plate in a volume of […]. Enzyme was added to all but the last two columns of the plate, to which, 10 μl of assay buffer was added (0.1M Tris ph7.5, 0.1 mM EDTA, 1 mM glutathione, 0.05% BSA) to provide a no enzyme assay control. Following a 15-minute incubation period, at room temperature, the plates were read on an Envision plate reader using 340 nm excitation and 460 nm emission filters. This served as a time zero background read. Substrates (an equal mix of both malonyl and acetyl CoA) were then added to the plates in a total volume of 5 μl. The concentrations of malonyl and acetyl CoA in the mixture were 500 μM and 150 μM respectively. Both were prepared as 10 mM stock solutions in distilled water and were subsequently diluted to working concentrations in assay buffer. Plates were then incubated for a further 60 minutes, at room temperature, before being read again on the Envision reader using the same parameters as previously used. The data was analysed by subtracting the background time zero data from that generated following the final 60 minute incubate and the percent inhibition compared to the maximum and minimum assay controls was determined. Sigmoid curves were fitted using Origin 7.5 Client software and IC50 values were determined.

What is called inhibition is the drop in the measured response relative to a control, in per cent.

T1 sequence (P49327 whole entry): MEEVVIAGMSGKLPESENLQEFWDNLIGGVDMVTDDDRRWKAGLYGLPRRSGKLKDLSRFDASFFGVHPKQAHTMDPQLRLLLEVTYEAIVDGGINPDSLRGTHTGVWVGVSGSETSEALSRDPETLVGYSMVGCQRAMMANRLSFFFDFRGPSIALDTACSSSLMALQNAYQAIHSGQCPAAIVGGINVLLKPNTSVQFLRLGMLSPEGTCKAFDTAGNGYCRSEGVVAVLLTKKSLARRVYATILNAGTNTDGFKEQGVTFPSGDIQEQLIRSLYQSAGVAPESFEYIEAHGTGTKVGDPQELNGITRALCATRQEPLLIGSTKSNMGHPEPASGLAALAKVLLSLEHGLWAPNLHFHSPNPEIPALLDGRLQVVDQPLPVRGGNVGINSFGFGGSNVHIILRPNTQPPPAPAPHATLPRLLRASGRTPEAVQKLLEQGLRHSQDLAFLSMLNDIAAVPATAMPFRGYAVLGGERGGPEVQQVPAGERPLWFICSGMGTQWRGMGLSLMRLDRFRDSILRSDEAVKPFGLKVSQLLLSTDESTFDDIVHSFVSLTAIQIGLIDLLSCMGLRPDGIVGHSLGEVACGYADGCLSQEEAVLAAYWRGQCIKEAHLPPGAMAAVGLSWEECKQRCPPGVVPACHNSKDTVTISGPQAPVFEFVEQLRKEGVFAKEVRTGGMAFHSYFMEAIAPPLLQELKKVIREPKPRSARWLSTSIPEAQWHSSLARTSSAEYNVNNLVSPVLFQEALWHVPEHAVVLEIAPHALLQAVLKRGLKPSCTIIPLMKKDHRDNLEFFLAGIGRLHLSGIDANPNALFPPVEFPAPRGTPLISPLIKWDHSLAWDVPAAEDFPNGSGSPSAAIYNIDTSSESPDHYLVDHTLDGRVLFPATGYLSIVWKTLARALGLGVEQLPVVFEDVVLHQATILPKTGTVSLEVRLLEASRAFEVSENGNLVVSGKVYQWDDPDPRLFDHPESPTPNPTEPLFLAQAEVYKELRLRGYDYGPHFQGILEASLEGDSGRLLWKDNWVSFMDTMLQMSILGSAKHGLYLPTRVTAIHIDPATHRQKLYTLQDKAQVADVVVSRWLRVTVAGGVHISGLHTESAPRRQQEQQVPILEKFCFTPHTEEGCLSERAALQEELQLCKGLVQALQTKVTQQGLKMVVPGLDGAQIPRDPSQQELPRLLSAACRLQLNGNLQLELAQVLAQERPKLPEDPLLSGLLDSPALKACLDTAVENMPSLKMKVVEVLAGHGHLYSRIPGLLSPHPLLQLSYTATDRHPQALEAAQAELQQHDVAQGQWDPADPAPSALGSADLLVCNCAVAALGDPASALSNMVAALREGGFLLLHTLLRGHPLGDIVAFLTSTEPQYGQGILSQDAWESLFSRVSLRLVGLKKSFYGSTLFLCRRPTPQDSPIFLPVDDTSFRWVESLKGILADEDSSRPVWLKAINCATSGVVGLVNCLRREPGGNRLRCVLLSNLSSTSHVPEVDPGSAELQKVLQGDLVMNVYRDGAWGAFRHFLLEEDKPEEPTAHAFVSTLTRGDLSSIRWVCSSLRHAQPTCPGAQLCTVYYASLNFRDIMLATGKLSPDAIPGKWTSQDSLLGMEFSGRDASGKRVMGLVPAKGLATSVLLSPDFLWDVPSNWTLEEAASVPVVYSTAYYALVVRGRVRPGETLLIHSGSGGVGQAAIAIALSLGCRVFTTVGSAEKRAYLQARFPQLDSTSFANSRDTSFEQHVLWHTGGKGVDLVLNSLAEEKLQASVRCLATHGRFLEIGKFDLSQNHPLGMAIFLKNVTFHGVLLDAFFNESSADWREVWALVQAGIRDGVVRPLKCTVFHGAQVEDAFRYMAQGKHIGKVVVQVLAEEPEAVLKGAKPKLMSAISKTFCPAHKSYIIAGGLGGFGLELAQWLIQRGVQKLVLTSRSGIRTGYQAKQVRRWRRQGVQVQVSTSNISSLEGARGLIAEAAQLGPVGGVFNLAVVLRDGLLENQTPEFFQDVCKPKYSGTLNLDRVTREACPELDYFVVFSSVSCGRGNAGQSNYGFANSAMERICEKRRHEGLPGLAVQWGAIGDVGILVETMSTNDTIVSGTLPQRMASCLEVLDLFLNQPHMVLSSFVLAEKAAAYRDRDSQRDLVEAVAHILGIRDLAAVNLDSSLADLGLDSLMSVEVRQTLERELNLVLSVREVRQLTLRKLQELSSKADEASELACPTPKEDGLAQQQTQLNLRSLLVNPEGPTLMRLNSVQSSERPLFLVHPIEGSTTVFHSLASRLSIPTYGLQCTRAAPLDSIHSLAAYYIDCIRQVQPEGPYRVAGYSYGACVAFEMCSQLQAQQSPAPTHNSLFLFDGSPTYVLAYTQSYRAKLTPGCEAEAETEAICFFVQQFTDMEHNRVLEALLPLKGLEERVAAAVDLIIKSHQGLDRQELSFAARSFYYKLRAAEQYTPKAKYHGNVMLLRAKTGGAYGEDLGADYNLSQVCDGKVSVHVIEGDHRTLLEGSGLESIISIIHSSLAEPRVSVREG

Take `Cc1ccc(C(=O)N2CCC(O)(c3ccccc3)CC2)cc1NS(C)(=O)=O` [N-[5-(4-hydroxy-4-phenylpiperidine-1-carbonyl)-2-methylphenyl]methanesulfonamide]: the “IC50s in the range of about 0.001 μM to about 30 μM” value (shortened to “IC50s in the range”) is on record as “do not have IC50s in the range of about 0.001 μM to about 30 μM”. Same read-out and setting: to `Cc1ccc(C(=O)N2CCC(c3ccc(CNC(=O)C(C)(C)O)cc3)CC2)cc1NS(C)(=O)=O` [2-hydroxy-N-[[4-[1-(3-methanesulfonamido-4-methylbenzoyl)piperidin-4-yl]phenyl]methyl]-2-methylpropanamide] belongs “do not have IC50s in the range of about 0.001 μM to about 30 μM”. With `Cc1ccc(C(=O)N2CCC(c3ccc(C#N)cc3)CC2)cc1NS(=O)(=O)c1cnc(C)n1C` [Example 114, N-[5-[4-(4-cyanophenyl)piperidine-1-carbonyl]-2-methyl-phenyl]-2,3-dimethyl-imidazole-4-sulfonamide], the inhibition at 100 µM came to 85%. For the compound `Cc1cc(C2CCN(C(=O)c3ccc(C)c(NS(C)(=O)=O)c3)CC2)ccc1C#N` [Example 217, N-[5-[4-(4-cyano-3-methylphenyl)piperidine-1-carbonyl]-2-methylphenyl]methane-sulfonamide], testing at 100 µM gave an inhibition of 60%. Consider `CNC(=O)c1ccccc1S(=O)(=O)Nc1cc(C(=O)N2CCC(c3ccc(C#N)cc3)CC2)ccc1C` [2-[[5-[4-(4-cyanophenyl)piperidine-1-carbonyl]-2-methylphenyl]sulfamoyl]-N-methylbenzamide], for which the “IC50s in the range” value was “do not have IC50s in the range of about 0.001 μM to about 30 μM”. With `Cc1ccc(C(=O)N2CCC(c3ccc(C#N)cc3)CC2)cc1NS(=O)(=O)C1CCS(=O)(=O)C1` (centres unmarked) [Example 127, N-[5-[4-(4-cyanophenyl)piperidine-1-carbonyl]-2-methyl-phenyl]-1,1-dioxo-thiolane-3-sulfonamide], the inhibition at 100 µM was found to be 92%. On the same count and under the same terms, under `Cc1ccc(C(=O)N2CCC(c3ccc(C#N)cc3)CC2)cc1NS(=O)(=O)c1ccc(C#N)cc1` [Example 23, 4-cyano-N-[5-[4-(4-cyanophenyl)piperidine-1-carbonyl]-2-methyl-phenyl]benzenesulfonamide] stands 89%.

Take `N#Cc1ccc(C2CCN(C(=O)c3ccc(OC(F)(F)F)c(NS(=O)(=O)Cc4ccccc4)c3)CC2)cc1` [N-[5-[4-(4-cyanophenyl)piperidine-1-carbonyl]-2-(trifluoromethoxy)phenyl]-1-phenylmethanesulfonamide]: the “IC50s in the range” value is “do not have IC50s in the range of about 0.001 μM to about 30 μM”. `Cc1ccc(C(=O)N2CCC(c3ccc(C#N)c(Cl)c3)CC2)cc1NS(C)(=O)=O` [Example 218, N-[5-[4-(3-chloro-4-cyanophenyl)piperidine-1-carbonyl]-2-methylphenyl]methane-sulfonamide] yielded an inhibition at 100 µM of 67%.

With `Cc1ccc(C(=O)N2CCC(c3ccccc3C#N)CC2)cc1NS(C)(=O)=O` [N-[5-[4-(2-cyanophenyl)piperidine-1-carbonyl]-2-methylphenyl]methanesulfonamide], the “IC50s in the range” value is listed as “do not have IC50s in the range of about 0.001 μM to about 30 μM”. `Cc1ccc(C(=O)N2CCC(c3ccc(C#N)cc3)CC2)cc1NS(=O)(=O)Cc1ccccc1F` [Example 26, N-[5-[4-(4-cyanophenyl)piperidine-1-carbonyl]-2-methyl-phenyl]-1-(2-fluorophenyl)methanesulfonamide] came in with an inhibition at 100 µM of 94%. In the case of `Cc1ccc(C(=O)N2CCC(c3ccc(C#N)cc3)CC2)cc1NS(=O)(=O)c1ccn(C)n1` [Example 140, N-[5-[4-(4-cyanophenyl)piperidine-1-carbonyl]-2-methyl-phenyl]-1-methyl-pyrazole-3-sulfonamide], at 100 µM the inhibition was 100%.

For `N#Cc1ccc(C2CCN(C(=O)c3cccc(NS(=O)(=O)Cc4ccccc4)c3)CC2)cc1` [Example 66, N-[3-[4-(4-cyanophenyl)piperidine-1-carbonyl]phenyl]-1-phenyl-methanesulfonamide], 100 µM produced 80% inhibition. Turning to `CS(=O)(=O)Cc1ccc(C(=O)N2CCC(c3ccc(C#N)cc3)CC2)cc1NS(C)(=O)=O` [N-[5-[4-(4-cyanophenyl)piperidine-1-carbonyl]-2-(methylsulfonylmethyl)phenyl]methanesulfonamide], the “IC50s in the range” value is listed as “do not have IC50s in the range of about 0.001 μM to about 30 μM”. Consider `Cc1ccc(NS(=O)(=O)C2CCS(=O)(=O)C2)cc1C(=O)N1CCC(c2ccc(C#N)cc2)CC1` (centres unmarked) [Example 69, N-[3-[4-(4-cyanophenyl)piperidine-1-carbonyl]-4-methyl-phenyl]-1,1-dioxo-thiolane-3-sulfonamide], for which the inhibition at 100 µM was 82%. Same read-out and setting: to `CC(=O)Nc1ccc(S(=O)(=O)Nc2ccc(C)c(C(=O)N3CCC(c4ccc(C#N)cc4)CC3)c2)cc1` [Example 48, N-[4-[[3-[4-(4-cyanophenyl)piperidine-1-carbonyl]-4-methyl-phenyl]sulfamoyl]phenyl]acetamide] belongs 84%.

In turn, `COC(=O)c1ccccc1S(=O)(=O)Nc1cc(C(=O)N2CCC(c3ccc(C#N)cc3)CC2)ccc1C` [Example 108, methyl 2-[[5-[4-(4-cyanophenyl)piperidine-1-carbonyl]-2-methyl-phenyl]sulfamoyl]benzoate] displayed an inhibition at 100 µM of 78%.

`Cc1ccc(C(=O)N2CCC(c3ccc(N(C)S(C)(=O)=O)cc3)CC2)cc1NS(C)(=O)=O` [Example 230, N-[2-methyl-5-[4-[4-(methyl-methylsulfonylamino)phenyl]piperidine-1-carbonyl]phenyl]methanesulfonamide] gave an inhibition at 100 µM of 73.2%. In turn, `Cc1ccc(C(=O)N2CCC(c3ccc(C#N)cc3)CC2)cc1NS(=O)(=O)CCc1ccccc1` [Example 202, N-[5-[4-(4-cyanophenyl)piperidine-1-carbonyl]-2-methylphenyl]-2-phenylethanesulfonamide] yielded an inhibition at 100 µM of 90%. For `COCc1ccc(C(=O)N2CCC(c3ccc(C#N)cc3)CC2)cc1NS(C)(=O)=O` [Example 161, N-[5-[4-(4-cyanophenyl)piperidine-1-carbonyl]-2-(methoxymethyl)phenyl]methanesulfonamide], the inhibition at 100 µM amounted to 80%.

The compound `Cc1nc(-c2ccc(C3CCN(C(=O)c4ccc(C)c(NS(C)(=O)=O)c4)CC3)cc2)no1` [Example 167, N-[2-methyl-5-[4-[4-(5-methyl-1,2,4-oxadiazol-3-yl)phenyl]piperidine-1-carbonyl]phenyl]methanesulfonamide] had an inhibition at 100 µM of 87%. The compound `Cc1ccc(C(=O)N2CCC(c3ccc(S(C)(=O)=O)cc3)CC2)cc1NS(=O)(=O)Cc1ccccc1` [Example 193, N-[2-methyl-5-[4-(4-methylsulfonylphenyl)piperidine-1-carbonyl]phenyl]-1-phenyl-methanesulfonamide] gave an inhibition at 100 µM of 70%. In the case of `N#Cc1ccc(C2CCN(C(=O)c3ccc(Cl)c(NS(=O)(=O)c4ccccc4F)c3)CC2)cc1` [Example 191, N-[2-chloro-5-[4-(4-cyanophenyl)piperidine-1-carbonyl]phenyl]-2-fluorobenzenesulfonamide], the inhibition at 100 µM was found to be 63%.
